One data set has as its system ddY strain male mice. The experiment in a line: Acute toxicity (Minimum Lethal Dose). Format: in vivo. As to the method: The test compound was orally and intraperitoneally administered to ddY strain male mice weighing 20 to 25 g. MLD (Minimum Lethal Dose) was determined by observing the mortality for […] after the administration.
Data set [1] deals with passive Schultz-Dale reaction. The experiment in a line: Effect on passive Schultz-Dale reaction (broncho-dilative activity), sensitized tracheal strips contracted by antigen. The arrangement: species or system male Hartley guinea pigs. To be noted: guinea pig tracheal zig-zag strips, 37° C., antigen egg white albumin 1 μg/ml; read-out: Passive Schultz-Dale reaction IC50 (concentration of 50% relaxation rate). The procedure: d) Effect on passive Schultz-Dale reaction (broncho-dilative activity)
Male Hartley guinea pigs weighing 350 to 500 g were passively sensitized by intraperitoneal injection of rabbit anti-OA serum prepared in advance by the method of Koda et al. [Folia Pharmacol., Japon 66, 237, (1970)]. After 24 hours, the guinea pigs were stunned and exsanguinated, and then tracheae were removed. The zig-zag strips of the tracheae were prepared by the method of Emmerson and Mackay [J. Pharm. Pharmacol., 31, 798, (1979)]. The strips were suspended in Krebs-Henseleit solution at 37° C. under aeration of a mixed gas of 95% oxygen and 5% carbon dioxide, and equilibrated for one hour. Then, antigen (egg white albumin) was introduced in the solution (final concentration; 1 μg/ml), and the contraction was measured by isotonictransducer (TD-112s, made by Nihon Kohden K.K., Japan) and recorded on a recorder (Type 3066, made by Yokogawa-Hokushin Denki, K.K. Japan). After the contraction curves reached a plateau, the test compounds were successively added in order to get cumulative concentration-relaxation curves. The concentration of 50% relaxation rate (IC50) was calculated from the regression line, which was obtained from the cumulative concentration-relaxation curves.

Data set [2] deals with platelet activating factor (PAF)-induced mortality. The data set is described as follows: Inhibition effect on platelet activating factor (PAF)-induced mortality. Type of data set: in vivo, male dd mice. Conditions: Mus musculus, po, PAF 40 μg/kg i.v., 3 h, n = 10, control group survival 0-20%, read-out: Survival rate of test compound-administered group. The procedure:
e) Inhibition effect on platelet activating factor (PAF)-induced mortality
The experiment was carried out by a minor modification of a known method [Br. J. Pharmacol., 79, 595 (1983)]. Groups each consisting of 10 male dd mice (weighing 28 to 32 g) were used, and 50 or 100 mg/kg of the test compound or a saline (control) was orally administered. One hour after the administration of test compound, 40 μg/kg of PAF (manufactured by Avanti Polar Lipids Co., Ltd.) was intravenously administered. Three hours after PAF injection, the mortality of the animals was observed.

Counter-ions that a name gives are not always drawn.

Turning to `Cn1cnc2c(=O)n(-c3ccccc3)c3ncccc3c21` [Compound 2, 1-Methyl-5-phenyl-1H-imidazo[4,5-c][1,8]naphthyridin-4(5H)-one], in the data set on ddY strain male mice, the “MLD (Minimum Lethal Dose) i.p.” value is reported as over 100 mg/kg and the “MLD (Minimum Lethal Dose) p.o.” value was over 300 mg/kg.
On to `O=c1c2[nH]cnc2c2cccnc2n1-c1ccccc1` [Compound 3, 5-Phenyl-3H-imidazo[4,5-c][1,8]naphthyridin-4(5H)-one], for which the IC50 in data set [1] amounted to 770 nM. In addition, the responders at 100 mg/kg in data set [2] amounted to 70%. In the data set with ddY strain male mice, the “MLD (Minimum Lethal Dose) i.p.” value was over 100 mg/kg and the “MLD (Minimum Lethal Dose) p.o.” value is listed as over 300 mg/kg.
In the case of `Cn1cnc2c3cccnc3n(-c3ccccc3)c(=O)c21` [Compound 4, 3-Methyl-5-phenyl-3H-imidazo[4,5-c][1,8]naphthyridin-4(5H)-one], the IC50 in data set [1] amounted to 240 nM. In the data set on ddY strain male mice, the “MLD (Minimum Lethal Dose) i.p.” value was over 50 mg/kg and the “MLD (Minimum Lethal Dose) p.o.” value was over 50 mg/kg.
Regarding `O=c1c2ncn(Cc3ccccc3)c2c2cccnc2n1-c1ccccc1` [Compound 7, 1-Benzyl-5-phenyl-1H-imidazo[4,5-c][1,8]naphthyridin-4(5H)-one], the IC50 in data set [1] is over 10000 nM. For the same molecule, the responders at 100 mg/kg in data set [2] stood at 90%.
For the molecule `CCOC(=O)Cn1cnc2c3cccnc3n(-c3ccccc3)c(=O)c21` [Compound 32, 3-Ethoxycarbonylmethyl-5-phenyl-3H-imidazo[4,5-c][1,8]naphthyridin-4(5H)-one], in data set [1], the IC50 turned out to be 680 nM. In data set [2], the responders at 100 mg/kg was determined as 0%. Moreover, in the data set on ddY strain male mice, the “MLD (Minimum Lethal Dose) i.p.” value is listed as over 100 mg/kg and the “MLD (Minimum Lethal Dose) p.o.” value is over 300 mg/kg.
On to `CCCC(CCC)n1cnc2c3cccnc3n(-c3ccccc3)c(=O)c21` [Compound 35, 3-(1-Propylbutyl)-5-phenyl-3H-imidazo[4,5-c][1,8]naphthyridin-4(5H)-one], for which, in data set [2], the responders at 100 mg/kg was 70%. In the data set on ddY strain male mice, the “MLD (Minimum Lethal Dose) i.p.” value is listed as over 100 mg/kg and the “MLD (Minimum Lethal Dose) p.o.” value is on record as over 300 mg/kg.
On the same counts, the results for `O=c1c2c(ncn2CC=Cc2ccccc2)c2cccnc2n1-c1ccccc1` [Compound 36, 3-Cinnamyl-5-phenyl-3H-imidazo[4,5-c][1,8]naphthyridin-4(5H)-one] are 20%, over 100 mg/kg and over 300 mg/kg.
In the case of `O=c1c2c(ncn2C(c2ccccc2)c2ccccc2)c2cccnc2n1-c1ccccc1` [Compound 38, 3-(3-Diphenylmethyl)-5-phenyl-3H-imidazo-[4,5-c][1,8]naphthyridin-4(5H)-one], the responders at 100 mg/kg in data set [2] worked out at 30%.
Same read-out and setting: as for `Cc1ccc(C)c(Cn2cnc3c4cccnc4n(-c4ccccc4)c(=O)c32)c1` [Compound 39, 3-(2,5-Dimethylphenyl)methyl-5-phenyl-3H-imidazo[4,5-c][1,8]naphthyridin-4(5H)-one], the figure is 0%.
Turning to `O=c1c2c(ncn2Cc2ccccc2Cl)c2cccnc2n1-c1ccccc1` [Compound 48, 3-(2-Chlorophenyl)methyl-5-phenyl-3H-imidazo[4,5-c][1,8]naphthyridin-4(5H)-one], the IC50 in data set [1] came out at 4900 nM. Besides, in data set [2], the responders at 100 mg/kg is 10%.
Regarding `O=c1c2c(ncn2Cc2cccc(Br)c2)c2cccnc2n1-c1ccccc1` [Compound 49, 3-(3-Bromophenyl)methyl-5-phenyl-3H-imidazo[4,5-c][1,8]naphthyridin-4(5H)-one], the responders at 100 mg/kg in data set [2] amounted to 0%.
The same measure, in the same setting: to `COC(=O)c1ccc(Cn2cnc3c4cccnc4n(-c4ccccc4)c(=O)c32)cc1` [Compound 50, 3-(4-Methoxycarbonylphenyl)methyl-5-phenyl-3H-imidazo[4,5-c][1,8]naphthyridin-4(5H)-one] belongs 0%.
Still for that read-out and setting: as for `O=c1c2c(ncn2CCCO)c2cccnc2n1-c1ccccc1` [Compound 51, 3-(3-Hydroxypropyl)-5-phenyl-3H-imidazo[4,5-c][1,8]naphthyridin-4(5H)-one], the figure is 80%.
Still for that read-out and setting: to `CC(O)Cn1cnc2c3cccnc3n(-c3ccccc3)c(=O)c21` (centres unmarked) [Compound 52, 3-(2-Hydroxypropyl)-5-phenyl-3H-imidazo[4,5-c][1,8]naphthyridin-4(5H)-one] belongs 100%; to `O=c1c2c(ncn2Cc2ccco2)c2cccnc2n1-c1ccccc1` [Compound 53, 3-Furfuryl-5-phenyl-3H-imidazo[4,5-c][1,8]naphthyridin-4(5H)-one], 90%; to `O=c1c2c(ncn2Cc2cccnc2)c2cccnc2n1-c1ccccc1` [Compound 54, 5-Phenyl-3-(3-pyridyl)methyl-3H-imidazo[4,5-c][1,8]naphthyridin-4(5H)-one], 90%.
In the case of `COc1ccc(-n2c(=O)c3c(ncn3Cc3ccccc3)c3cccnc32)cc1` [Compound 55, 5-(4-Methoxyphenyl)-3-benzyl-3H-imidazo[4,5-c][1,8]naphthyridin-4(5H)-one], the responders at 100 mg/kg in data set [2] is 0%.
Regarding `COc1cccc(-n2c(=O)c3c(ncn3Cc3ccccc3)c3cccnc32)c1` [Compound 56, 5-(3-Methoxyphenyl)-3-benzyl-3H-imidazo[4,5-c][1,8]naphthyridin-4(5H)-one], in data set [2], the responders at 100 mg/kg came out at 40%.
Same read-out and setting: as for `Cc1ccc(-n2c(=O)c3c(ncn3Cc3ccccc3)c3cccnc32)cc1` [Compound 57, 5-(4-Methylphenyl)-3-benzyl-3H-imidazo[4,5-c][1,8]naphthyridin-4(5H)-one], the figure is 0%; as for `Cc1nc2c3cccnc3n(-c3ccccc3)c(=O)c2n1Cc1ccccc1` [Compound 60, 2-Methyl-5-phenyl-3-benzyl-3H-imidazo[4,5-c][1,8]-naphthyridin-4(5H)-one], 20%; as for `O=c1c2c(nc(-c3ccccc3)n2Cc2ccccc2)c2cccnc2n1-c1ccccc1` [Compound 61, 2,5-Diphenyl-3-benzyl-3H-imidazo[4,5-c][1,8]naphthyridin-4(5H)-one], 10%.
The same measure, in the same setting: as for `COc1ccc(-n2c(=O)c3c(ncn3CC(C)C)c3cccnc32)cc1` [Compound 62, 3-Isobutyl-5-(4-methoxyphenyl)-3H-imidazo[4,5-c][1,8]naphthyridin-4(5H)-one], the figure is 90%.
On the same count and under the same terms, to `Cc1ccc(-n2c(=O)c3c(ncn3CC(C)C)c3cccnc32)cc1` [Compound 64, 3-Isobutyl-5-(4-methylphenyl)-3H-imidazo[4,5-c][1,8]naphthyridin-4(5H)-one] belongs 60%.
On to `O=c1c2c(ncn2CCCN2CCOCC2)c2cccnc2n1-c1ccccc1` [Compound 66 Sa, 3-(3-Morpholino)propyl-5-phenyl-3H-imidazo[4,5-c][1,8]naphthyridin-4(5H)-one hydrochloride], for which, in data set [2], the responders at 100 mg/kg amounted to 70%. In addition, in the data set with ddY strain male mice, the “MLD (Minimum Lethal Dose) i.p.” value was over 100 mg/kg and the “MLD (Minimum Lethal Dose) p.o.” value is on record as over 300 mg/kg.
In the case of `CCN(CC)CCCn1cnc2c3cccnc3n(-c3ccccc3)c(=O)c21` [Compound 67 Sa, 3-(3-Diethylamino)propyl-5-phenyl-3H-imidazo[4,5-c][1,8]naphthyridin-4(5H)-one hydrochloride], the responders at 100 mg/kg in data set [2] stood at 30%. Also, in the data set with ddY strain male mice, the “MLD (Minimum Lethal Dose) i.p.” value is given as over 100 mg/kg and the “MLD (Minimum Lethal Dose) p.o.” value was over 300 mg/kg.

The values are drawn from patent US5468756A, “Imidazonaphthyridine derivatives” (Kyowa Hakko Kogyo Co., Ltd., priority 1990, dated 1995).
